Experimental data reported in PubChem BioAssay (NCI).
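Tested at 5 concentrations; 48 h exposure; 96-well plates; endpoints linearly interpolated, else capped at highest concentration. Abbreviation: GI50, concentration required for 50% inhibition of growth. Definition used: TGI = concentration required for complete inhibition of growth.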

Assays:
Assay in all cases: NCI tumour cell line growth inhibition, 48 h
[1] = tested on: NCI-H23 lung
[2] = tested on: RPMI-8226 leukemia
[3] = tested on: M14 melanoma
[4] = tested on: SK-OV-3 ovarian
[5] = tested on: A498 renal
[6] = tested on: SN12C renal
[7] = tested on: HCT-116 colon
[8] = tested on: A549 NSCLC
[9] = tested on: SR leukemia
[10] = tested on: HCT-15 colon
[11] = tested on: LOX IMVI melanoma
[12] = tested on: HOP-62 NSCLC
[13] = tested on: UO-31 renal
[14] = tested on: SF-539 CNS
[15] = tested on: SK-MEL-28 melanoma
[16] = tested on: COLO 205 colon
[17] = tested on: SF-268 CNS
[18] = tested on: PC-3 prostate
[19] = tested on: IGROV1 ovarian
[20] = tested on: OVCAR-5 ovarian
[21] = tested on: OVCAR-3 ovarian
[22] = tested on: UACC-62 melanoma
[23] = tested on: U251 CNS
[24] = tested on: 786-0 renal
[25] = tested on: NCI-H460 lung
[26] = tested on: MDA-MB-435
[27] = tested on: CAKI-1 renal
[28] = tested on: OVCAR-8 ovarian
[29] = tested on: HL-60(TB) leukemia
[30] = tested on: SK-MEL-5 melanoma
[31] = tested on: ACHN renal
[32] = tested on: SK-MEL-2 melanoma
[33] = tested on: SNB-19 CNS
[34] = tested on: OVCAR-4 ovarian
[35] = tested on: BT-549 breast
[36] = tested on: MDA-MB-231 breast
[37] = tested on: DU-145 prostate
[38] = tested on: SNB-75 CNS
[39] = tested on: EKVX NSCLC
[40] = tested on: NCI-H522 lung
[41] = tested on: NCI/ADR-RES ovarian
[42] = tested on: HOP-92 NSCLC
[43] = tested on: CCRF-CEM leukemia
[44] = tested on: HT29 colon
[45] = tested on: TK-10 renal
[46] = tested on: HS 578T breast
[47] = tested on: KM12 colon
[48] = tested on: NCI-H226 lung
[49] = tested on: MOLT-4 leukemia
[50] = tested on: UACC-257 melanoma
[51] = tested on: MALME-3M melanoma
[52] = tested on: SF-295 CNS
[53] = tested on: SW-620 colon
[54] = tested on: HCC-2998 colon
[55] = tested on: RXF 393 renal
[56] = tested on: MCF7 breast
[57] = tested on: T-47D breast
[58] = tested on: K-562 leukemia

## NC1=CC(=O)c2cccnc2C1=O
[1]
  GI50: 1.34 µM
  TGI: 4.14 µM
[2]
  GI50: 1.81 µM
  TGI: 4.58 µM
[3]
  GI50: 1.7 µM
  TGI: 3.24 µM
[4]
  GI50: 4.26 µM
  TGI: 17.8 µM
[5]
  GI50: 10.1 µM
  TGI: 23.3 µM
[6]
  GI50: 1.49 µM
  TGI: 2.94 µM
[7]
  GI50: 1.45 µM
  TGI: 3.36 µM
[8]
  GI50: 3.84 µM
  TGI: 15 µM
[9]
  GI50: 0.729 µM
  TGI: 3.69 µM
[10]
  GI50: 1.76 µM
  TGI: 10.2 µM
[11]
  GI50: 0.981 µM
  TGI: 2.69 µM
[12]
  GI50: 1.32 µM
  TGI: 2.77 µM
[13]
  GI50: 1.17 µM
  TGI: 2.5 µM
[14]
  GI50: 1.62 µM
  TGI: 3 µM
[15]
  GI50: 1.7 µM
  TGI: 3.21 µM
[16]
  GI50: 3.33 µM
  TGI: 11.7 µM
[17]
  GI50: 1.48 µM
  TGI: 3.78 µM
[18]
  GI50: 2.22 µM
  TGI: 7.55 µM
[19]
  GI50: 1.28 µM
  TGI: 3.29 µM
[20]
  GI50: 2.05 µM
  TGI: 4.72 µM
[21]
  GI50: 1.44 µM
  TGI: 3.16 µM
[22]
  GI50: 1.47 µM
  TGI: 2.87 µM
[23]
  GI50: 1.46 µM
  TGI: 2.83 µM
[24]
  GI50: 1.78 µM
  TGI: 3.75 µM
[25]
  GI50: 1.23 µM
  TGI: 3.25 µM
[26]
  GI50: 0.833 µM
  TGI: 2.12 µM
[27]
  GI50: 1.59 µM
  TGI: 3.15 µM
[28]
  GI50: 1.66 µM
  TGI: 4.2 µM
[29]
  GI50: 1.05 µM
  TGI: 3.99 µM
[30]
  GI50: 1.58 µM
  TGI: 2.95 µM
[31]
  GI50: 1.29 µM
  TGI: 2.75 µM
[32]
  GI50: 1.63 µM
  TGI: 3.14 µM
[33]
  GI50: 1.84 µM
  TGI: 3.88 µM
[34]
  GI50: 1.3 µM
  TGI: 2.78 µM
[35]
  GI50: 1.58 µM
  TGI: 2.98 µM
[36]
  GI50: 1.9 µM
  TGI: 4.78 µM
[37]
  GI50: 1.58 µM
  TGI: 2.97 µM
[38]
  GI50: 1.21 µM
  TGI: 2.58 µM
[39]
  GI50: 1.58 µM
  TGI: 3.31 µM
[40]
  GI50: 0.533 µM
  TGI: 2.17 µM
[41]
  GI50: 2.29 µM
  TGI: 11.2 µM
[42]
  GI50: 1.71 µM
  TGI: 3.39 µM
[43]
  GI50: 1.19 µM
  TGI: 4.88 µM
[44]
  GI50: 3.48 µM
  TGI: 14.6 µM
[45]
  GI50: 15.6 µM
  TGI: 29.2 µM
[46]
  GI50: 2.28 µM
  TGI: 8.17 µM
[47]
  GI50: 3.28 µM
  TGI: 13.1 µM
[48]
  GI50: 7.61 µM
  TGI: 27.7 µM
[49]
  GI50: 1.01 µM
  TGI: 3.45 µM
[50]
  GI50: 1.54 µM
  TGI: 2.9 µM
[51]
  GI50: 1.7 µM
  TGI: 3.11 µM
[52]
  GI50: 1.62 µM
  TGI: 3.1 µM
[53]
  GI50: 1.56 µM
  TGI: 3.57 µM
[54]
  GI50: 5.82 µM
  TGI: 19.8 µM
[55]
  GI50: 1.67 µM
  TGI: 3.2 µM

## Cc1ccc2c(=O)cc(Cc3cccs3)[nH]c2n1
[1]
  TGI: > 100 µM
[56]
  TGI: > 100 µM
[2]
  TGI: > 100 µM
[3]
  TGI: > 100 µM
[4]
  TGI: > 100 µM
[6]
  TGI: > 100 µM
[7]
  TGI: > 100 µM
[8]
  TGI: > 100 µM
[10]
  TGI: > 100 µM
[11]
  TGI: > 100 µM
[12]
  TGI: > 100 µM
[13]
  TGI: > 100 µM
[15]
  TGI: > 100 µM
[16]
  TGI: > 100 µM
[17]
  TGI: > 100 µM
[18]
  TGI: > 100 µM
[19]
  TGI: > 100 µM
[57]
  TGI: > 100 µM
[20]
  TGI: > 100 µM
[21]
  TGI: > 100 µM
[22]
  TGI: > 100 µM
[23]
  TGI: > 100 µM
[24]
  TGI: > 100 µM
[26]
  TGI: > 100 µM
[27]
  TGI: > 100 µM
[28]
  TGI: > 100 µM
[29]
  TGI: > 100 µM
[30]
  TGI: > 100 µM
[32]
  TGI: > 100 µM
[33]
  TGI: > 100 µM
[34]
  TGI: > 100 µM
[35]
  TGI: > 100 µM
[36]
  TGI: > 100 µM
[37]
  TGI: > 100 µM
[38]
  TGI: > 100 µM
[39]
  TGI: > 100 µM
[40]
  TGI: > 100 µM
[41]
  TGI: > 100 µM
[43]
  TGI: > 100 µM
[44]
  TGI: > 100 µM
[45]
  TGI: > 100 µM
[46]
  TGI: > 100 µM
[47]
  TGI: > 100 µM
[48]
  TGI: > 100 µM
[49]
  TGI: > 100 µM
[50]
  TGI: > 100 µM
[58]
  TGI: > 100 µM
[51]
  TGI: > 100 µM
[52]
  TGI: > 100 µM
[53]
  TGI: > 100 µM
[55]
  TGI: > 100 µM
